Patent publication US3969401A, “D-aminophenylacetic acid compounds and derivatives” (William H. Rorer, Inc., priority 1973, dated 1976)
Structures can show the parent of a compound that is named as a salt.

Experiments:
carrageenan paw edema = test: Carrageenan Paw Edema (CPE); format: in vivo, male rats
Protocol: Of the substances used to induce local irritation, carrageenan was selected since most known nonsteroidal anti-inflammatory agents inhibit this inflammation.
Ten male rats per dose group (120-150 g.) were given one-half of the test material orally. Thirty minutes later, the remainder of the dose was given and 0.2 ml. of a 1% carrageenan solution was injected subdermally into the plantar surface of the hind paw. Each paw is marked as a consistent anatomical site, then immersed in a mercury bath to that point. The mercury bath is connected to a pressure transducer and the volume of displacement is read directly on a recorder. Three hours after drug administration, the hind paw volume is measured again. The increased volume is an index of edema. Treated groups are compared to a placebo-treated group to calculate the percent inhibition of edema.
(§1) The test results are given in the following Table wherein the following legends were employed: PQW phenylquinone writhing RSA Randall-Selitto Analgesia CPE Carrageenan Paw Edema UVS Ultra-Violet Erythema FPG Filter Paper Granuloma AP Anti-Pyresis P.T. Pain Threshold No. P/T Number Positive/Total % ↑ Percentage Increase % ↓ Percentage Inhibition

ultra-violet erythema = test: Ultra-violet Erythema in Guinea Pigs (UVE); format: in vivo, guinea pig
Text: Erythema associated with inflammation was used in the assay. Restricted areas of a guinea pig were exposed to a controlled ultra-violet light and after two hours the exposed areas were graded for the extent of erythema.
as §1

polyarthritis (adjuvant) = test: Polyarthritis in rats (adjuvant); format: in vivo
Protocol: Twelve rats per dose group were treated (b.i.d.) starting the day before injection of adjuvant. Paw volumes were measured for both hind paws on several days during and following drug treatment. Drug was given for a period of 15 days. The paw volume was compared to an untreated control group to determine volume increase. Drug action was calculated as the percent decrease in paw volume (inflammation) as compared to an adjuvant-treated control. Gross signs of inflammation were scored on a weekly basis and drug action calculated as a decrese in total score. Body weights were recorded at intervals.

Brewer's yeast fever = test: Anti-Pyretic Assay (AP); format: in vivo, rats; settings: positive = rectal temperature decreases by 1° C. or more
Protocol: Brewer's yeast was injected subcutaneously in rats and rectal temperatures were obtained at the end of five hours. Those rats (10 per group) having a significant fever were given test compounds and rectal temperatures were measured at hourly intervals for 2 to 3 hours. (A positive response occurs when rectal temperature decreases by 1° C. or more).
as §1

[1] = test system: yeast-inflamed hind paw (pain threshold); test: Randall-Selitto Analgesia Test (RSA); format: in vivo, rat
Protocol: In accordance with the Randall-Selitto test for measuring the pain threshold, the pressure needed on a metal plunger to give a "pain reponse" in a rat when the plunger is placed in the yeast-inflamed hind paw of a rat is measured. Following measurement of control pain threshold, yeast was injected into the paw and the test compound was given orally. The pain threshold was measured at hourly intervals and compared to a placebo-treated control group.
as §1

Acute Toxicity = settings: mouse, in vivo; male mice, oral single dose, observed nine days
Protocol: Food and water were delivered ad lib. The drug to be tested was prepared as a water suspension using one drop of "Tween 80" per 10 ml. and administered orally as a single dose (10 ml./kg.). The control group received the vehicle only (10 ml./kg.). The lethal dose (LD50) which is the dose of drug required to kill 50 percent of the animals tested, was determined by the Litchfield and Wilcoxon method.

phenylquinone writhing = test: Phenylquinone analgesia (phenylquinone writhing, PQW); format: in vivo, mice
Protocol: Mice were pre-treated orally with test compound and then given 1.25 mg./kg. of phenylquinone i.p to produce a series of "writhes" (severe intestinal contractions). The number of writhes was recorded. The percent decrease was calculated from the incidence of writhes in a placebo-treated control group.
as §1

filter paper granuloma = test: Filter Paper Granuloma (FPG); format: in vivo, rat
Protocol: This assay was used to evaluate anti-inflammatory agents and to determine the lowest dose which produces significant inhibition of granuloma growth. This assay has the advantage of being semi-acute (4 to 7 days). The usual end point involves obtaining the wet weight as well as the dry weight of the granuloma.
Small discs of filter paper saturated with carrageenan were placed subcutaneously in each rat on the first day of the study. Test compound was administered orally on a b.i.d. basis on Day 1 to Day 4. On Day 5, a single dose was given in the morning and the animals were sacrificed in the afternoon. Both filter paper discs were removed and trimmed of extraneous tissue and then weighed. After drying in an oven over the weekend, the dry weight was obtained. Activity was determined by the difference in granuloma weight between a placebo-treated control group and the drug-treated groups.
as §1

gastrointestinal tract = test: Gastrointestinal tolerance; format: in vivo; settings: compared with the free acids

O=C(O)C(S)c1ccc(C2CCCCC2)c(Cl)c1 (stereo not drawn) [Compound 528A, Diethylammonium salt of m-chloro-p-cyclohexyl-α-mercaptophenylacetic acid]
CPE % inhibition of edema (carrageenan paw edema; 100 mg/kg P.O): 52.0% | UVE No. P/T (Number Positive/Total) (ultra-violet erythema; 5 mg/kg P.O): 5/8 | UVE No. P/T (Number Positive/Total) (ultra-violet erythema; 10 mg/kg P.O): 5/8 | UVE No. P/T (Number Positive/Total) (ultra-violet erythema; 25 mg/kg P.O): 7/8 | ED50 (ultra-violet erythema; Cavia porcellus, po, P.O): 10.5 mg/kg | Polyarthritis % av. inhibition, injected hind-paw (polyarthritis (adjuvant); 100 mg./kg./day P.O): 52.8% | Polyarthritis % av. inhibition, noninjected hind-paw (polyarthritis (adjuvant); 100 mg./kg./day P.O): 35.6% | Polyarthritis % av. inhibition, secondary lesions (polyarthritis (adjuvant); 100 mg./kg./day P.O): 34.0%

O=C1NC(=O)C(c2ccc(C3CCCCC3)c(Cl)c2)S1 (centres unmarked) [Compound 529, 5-(m-Chloro-p-cyclohexylphenyl)-2,4-dioxothiazolidine]
CPE % inhibition of edema (carrageenan paw edema; 50 mg/kg P.O): 17.4% | CPE % inhibition of edema (carrageenan paw edema; 100 mg/kg P.O): 30% | AP No. P/T (Number Positive/Total) (Brewer's yeast fever; 100 mg/kg P.O): 1/8 | Polyarthritis % av. inhibition, injected hind-paw (polyarthritis (adjuvant); 100 mg./kg./day P.O): 42.0% | Polyarthritis % av. inhibition, noninjected hind-paw (polyarthritis (adjuvant); 100 mg./kg./day P.O): 17.3% | Polyarthritis % av. inhibition, secondary lesions (polyarthritis (adjuvant); 100 mg./kg./day P.O): 21.0%

N=C1NC(=O)C(c2ccc(C3CCCCC3)c(Cl)c2)S1 (centres unmarked) [Compound 530, 5-(m-Chloro-p-cyclohexylphenyl)-2-imino-4-oxothiazolidine]
RSA % increase of pain threshold (PT) ([1]; 100 mg/kg P.O): 51.4% | Polyarthritis % av. inhibition, injected hind-paw (polyarthritis (adjuvant); 100 mg./kg./day P.O): 38.1% | Polyarthritis % av. inhibition, noninjected hind-paw (polyarthritis (adjuvant); 100 mg./kg./day P.O): 44.7% | Polyarthritis % av. inhibition, secondary lesions (polyarthritis (adjuvant); 100 mg./kg./day P.O): 17.3%

O=C(O)C(SSC(C(=O)O)c1ccc(C2CCCCC2)c(Cl)c1)c1ccc(C2CCCCC2)c(Cl)c1 (stereo not drawn) [Compound 531A, Diethylammonium salt of α,α'-di-(m-chloro-p-cyclohexylphenyl)-α',α'-dithiodiacetic acid]
CPE % inhibition of edema (carrageenan paw edema; 100 mg/kg P.O): 19.9% | RSA % increase of pain threshold (PT) ([1]; 50 mg/kg P.O): 32% | RSA % increase of pain threshold (PT) ([1]; 100 mg/kg P.O): 28% | RSA % increase of pain threshold (PT) ([1]; 200 mg/kg P.O): 51% | AP No. P/T (Number Positive/Total) (Brewer's yeast fever; 50 mg/kg P.O): 1/8 | AP No. P/T (Number Positive/Total) (Brewer's yeast fever; 100 mg/kg P.O): 1/8 | AP No. P/T (Number Positive/Total) (Brewer's yeast fever; 200 mg/kg P.O): 6/8 | Polyarthritis % av. inhibition, injected hind-paw (polyarthritis (adjuvant); 100 mg./kg./day P.O): 34.0% | Polyarthritis % av. inhibition, noninjected hind-paw (polyarthritis (adjuvant); 100 mg./kg./day P.O): 44.7% | Polyarthritis % av. inhibition, secondary lesions (polyarthritis (adjuvant); 100 mg./kg./day P.O): 30.3% | Polyarthritis % av. inhibition, injected hind-paw (polyarthritis (adjuvant); 200 mg./kg./day P.O): 35.6% | Polyarthritis % av. inhibition, noninjected hind-paw (polyarthritis (adjuvant); 200 mg./kg./day P.O): 43.8% | Polyarthritis % av. inhibition, secondary lesions (polyarthritis (adjuvant); 200 mg./kg./day P.O): 43.6% | LD50 at 216 h (Acute Toxicity): > 2000 mg/kg

O=C(O)C(Cl)c1ccc(C2CCCCC2)c(Cl)c1 (stereo not drawn) [Compound 539A, Sodium salt of α,m-dichloro-p-cyclohexylphenylacetic acid]
PQW % inhibition (decrease in writhes) (phenylquinone writhing; 2 mg/kg P.O): 13.1% | PQW % inhibition (decrease in writhes) (phenylquinone writhing; 5 mg/kg P.O): 13.1% | PQW % inhibition (decrease in writhes) (phenylquinone writhing; 10 mg/kg P.O): 54.6% | PQW % inhibition (decrease in writhes) (phenylquinone writhing; 20 mg/kg P.O): 84.5% | PQW % inhibition (decrease in writhes) (phenylquinone writhing; 30 mg/kg P.O): 96.6% | ED50 (phenylquinone writhing; Mus musculus, po, P.O): 9.6 mg/kg | CPE % inhibition of edema (carrageenan paw edema; 1 mg/kg P.O): 10% | CPE % inhibition of edema (carrageenan paw edema; 2 mg/kg P.O): 30.3% | CPE % inhibition of edema (carrageenan paw edema; 3.125 mg/kg P.O): 34.6% | CPE % inhibition of edema (carrageenan paw edema; 5 mg/kg P.O): 29.5% | CPE % inhibition of edema (carrageenan paw edema; 6.25 mg/kg P.O): 42.0% | CPE % inhibition of edema (carrageenan paw edema; 12.5 mg/kg P.O): 47.2% | CPE % inhibition of edema (carrageenan paw edema; 25 mg/kg P.O): 43.0% | CPE % inhibition of edema (carrageenan paw edema; 50 mg/kg P.O): 52.0% | CPE % inhibition of edema (carrageenan paw edema; 100 mg/kg P.O): 64.0% | RSA % increase of pain threshold (PT) ([1]; 25 mg/kg P.O): 41.8% | RSA % increase of pain threshold (PT) ([1]; 50 mg/kg P.O): 49.3% | RSA % increase of pain threshold (PT) ([1]; 100 mg/kg P.O): 77.6% | AP No. P/T (Number Positive/Total) (Brewer's yeast fever; 6.25 mg/kg P.O): 0/8 | AP No. P/T (Number Positive/Total) (Brewer's yeast fever; 12.5 mg/kg P.O): 3/8 | AP No. P/T (Number Positive/Total) (Brewer's yeast fever; 25 mg/kg P.O): 2/8 | AP No. P/T (Number Positive/Total) (Brewer's yeast fever; 50 mg/kg P.O): 6/8 | AP No. P/T (Number Positive/Total) (Brewer's yeast fever; 100 mg/kg P.O): 8/8 | Polyarthritis % av. inhibition, injected hind-paw (polyarthritis (adjuvant); 10 mg./kg./day P.O): 41.8% | Polyarthritis % av. inhibition, noninjected hind-paw (polyarthritis (adjuvant); 10 mg./kg./day P.O): 14.1% | Polyarthritis % av. inhibition, secondary lesions (polyarthritis (adjuvant); 10 mg./kg./day P.O): 28.2% | Polyarthritis % av. inhibition, injected hind-paw (polyarthritis (adjuvant); 25 mg./kg./day P.O): 50.2% | Polyarthritis % av. inhibition, noninjected hind-paw (polyarthritis (adjuvant); 25 mg./kg./day P.O): 12.1% | Polyarthritis % av. inhibition, secondary lesions (polyarthritis (adjuvant); 25 mg./kg./day P.O): 44.0% | Polyarthritis % av. inhibition, injected hind-paw (polyarthritis (adjuvant); 50 mg./kg./day P.O): 45% | Polyarthritis % av. inhibition, noninjected hind-paw (polyarthritis (adjuvant); 50 mg./kg./day P.O): 59.6% | Polyarthritis % av. inhibition, secondary lesions (polyarthritis (adjuvant); 50 mg./kg./day P.O): 39.3% | Polyarthritis % av. inhibition, injected hind-paw (polyarthritis (adjuvant); 100 mg./kg./day P.O): 59.1% | Polyarthritis % av. inhibition, noninjected hind-paw (polyarthritis (adjuvant); 100 mg./kg./day P.O): 51.2% | Polyarthritis % av. inhibition, secondary lesions (polyarthritis (adjuvant); 100 mg./kg./day P.O): 30.1% | EPG (Filter Paper Granuloma) % inhibition, dry weight (filter paper granuloma; 25 mg./kg./day P.O): 41.1% | EPG (Filter Paper Granuloma) % inhibition, wet weight (filter paper granuloma; 25 mg./kg./day P.O): 31.7% | EPG (Filter Paper Granuloma) % inhibition, dry weight (filter paper granuloma; 50 mg./kg./day P.O): 38.8% | EPG (Filter Paper Granuloma) % inhibition, wet weight (filter paper granuloma; 50 mg./kg./day P.O): 43.9% | LD50 at 216 h (Acute Toxicity): 430 mg/kg

CCOC(=O)C(Cl)c1ccc(C2CCCCC2)c(Cl)c1 (stereo not drawn) [Compound 541, α,m-Dichloro-p-cyclohexylphenylacetic acid ethyl ester]
CPE % inhibition of edema (carrageenan paw edema; 6.25 mg/kg P.O): 51.3% | CPE % inhibition of edema (carrageenan paw edema; 12.5 mg/kg P.O): 38.8% | CPE % inhibition of edema (carrageenan paw edema; 25 mg/kg P.O): 49.8% | CPE % inhibition of edema (carrageenan paw edema; 50 mg/kg P.O): 52.2% | gastrointestinal tolerability (gastrointestinal tract): better tolerated and not as irritating on the gastrointestinal tract as the free acids
